From patent US20220218801A1, “COMBINATION GMCI AND ATRI CANCER TREATMENT” (Candel Therapeutics, Inc., priority 2019, published 2022) come the findings set out here.

Test [1] relates to glioma cell line (GL261). The test can be described thus: glioma cell viability assay (Presto Blue, fluorescence). Type of test: cell-based. As for the experimental part: The combination of GMCI and ATRi (AZD6738) is examined for anti-cancer activity. A schematic of an experimental design to test the effect of combining of GMCI and ATR inhibitor combination on glioma cells is illustrated in FIG. 1. At the start of the study (Day 0), a glioma cell line (GL261; NCI-Frederick Cancer Research Tumor Repository, Frederick, Md.) is plated at a density of 5000 cells per well. For the samples on which GMCI is administered, on the following day (Day 1) AdV-tk vector is added at a concentration of approximately […] (100 MOI). Starting on Day 2, to the samples being treated with GMCI, ganciclovir is added to a concentration of 5 μg/ml. […] At Day 4, cell viability is assayed by the addition of a vial dye such as Presto Blue assay (Life Technologies) and quantified by fluorescence spectrometry.
Synergism was analyzed by the Combination Index (CI) calculation with the formula of Chou-Talalay (Chou 2010; Ting-Chao Chou 1984). CI values above 1.00 indicate antagonistic effect of combination agents, a CI of 1.00 indicates an additive effect, and CI values below 1.00 indicate synergistic effect.

In test [2] the test system is glioma cell line (GL261). Put plainly: double-stranded DNA breaks by H2AX Ser139 staining (confocal microscopy). The note with it: 6 hours after addition of ATRi (IC50 concentration) and/or GCV 5 μg/ml, compared with untreated cells. Type of test: cell-based. As for the experimental part:
In another experiment, the frequency of double-stranded DNA breaks in glioma cells treated with GMCI, ATRi, or the combination. The formation of double-stranded DNA breaks was examined by staining the cells for H2AX-Ser139 as previously performed (Speranza et al. 2017).
At the start of the study (Day 0), glioma cell line (GL261; NCI-Frederick Cancer Research Tumor Repository, Frederick, Md.) is plated at a density of 12,500 cells per well of a 24 well plate containing glass coverslips. For the samples to which GMCI is administered, AdV-tk vector is added at a concentration of approximately 1.25×10^6 vp/ml (100 MOI). Starting on Day 1, to the samples being treated with GMCI, ganciclovir is added to a concentration of 5 μg/ml. In samples exposed to ATRi, starting at Day 1 AZD6738 was added at a concentration to the IC50 concentration of the drug. either in combination with GMCI or alone, as indicated. At a timepoint 6 hours after addition of the ATRi and/or GCV, the cells were fixed in 4% paraformaldehyde in phosphate buffered saline. After blocking with 5% donkey serum/0.5% Tween 20, 0.02% TX100/PBS for 1 hour at room temperature (RT), cells were washed 3 times with washing buffer (0.5% Tween 20, 0.02% TX100/PBS) and stained with H2AX Ser139 antibody (1:100). The next day the samples were washed and incubated for 2 hours with a fluorescently-tagged secondary antibody plus Hoechst 33342. […]

For the compound `C[C@@H]1COCCN1c1cc(C2([S@](C)(=N)=O)CC2)nc(-c2cc[nH]c3nccc2-3)n1` [AZD6738], the “cell viability (fluorescence normalized to no treatment)” value with glioma cell line (GL261) [1] (GL261, single agents, AZD6738 at IC50 (1 μM) or ½ IC50 (0.5 μM) from Day 2, GMCI = AdV-tk 100 MOI + ganciclovir 5 μg/ml, read at Day 4) was “cytotoxic activity”. Besides, the IC50 in the test on glioma cell line (GL261) [1] (Mus musculus, GL261 glioma cells, read-out: IC50 concentration) turned out to be 1000 nM. Further, the “double-stranded DNA breaks / H2AX(Ser139) staining” value in the test with glioma cell line (GL261) [2] was “Double-stranded DNA breaks occur”; in the test on glioma cell line (GL261) [2] (listed as ATRi) it was “large increase in H2AX staining”.
